Data taken from article PMC8617627, “Novel DYRK1A Inhibitor Rescues Learning and Memory Deficits in a Mouse Model of Down Syndrome” (Pharmaceuticals, 2021).
Read-outs that look alike come from different tables or passages of the source.

How the values were obtained:
Assay in all cases: Kinase profile (33P ATP filter binding)
Type in all cases: biochemical
EIF2AK3 = target: T1, EIF2AK3 (Homo sapiens, UniProt Q9NZJ5); settings: read-out: Remaining protein kinase activity
T1 sequence (Q9NZJ5 30-1116): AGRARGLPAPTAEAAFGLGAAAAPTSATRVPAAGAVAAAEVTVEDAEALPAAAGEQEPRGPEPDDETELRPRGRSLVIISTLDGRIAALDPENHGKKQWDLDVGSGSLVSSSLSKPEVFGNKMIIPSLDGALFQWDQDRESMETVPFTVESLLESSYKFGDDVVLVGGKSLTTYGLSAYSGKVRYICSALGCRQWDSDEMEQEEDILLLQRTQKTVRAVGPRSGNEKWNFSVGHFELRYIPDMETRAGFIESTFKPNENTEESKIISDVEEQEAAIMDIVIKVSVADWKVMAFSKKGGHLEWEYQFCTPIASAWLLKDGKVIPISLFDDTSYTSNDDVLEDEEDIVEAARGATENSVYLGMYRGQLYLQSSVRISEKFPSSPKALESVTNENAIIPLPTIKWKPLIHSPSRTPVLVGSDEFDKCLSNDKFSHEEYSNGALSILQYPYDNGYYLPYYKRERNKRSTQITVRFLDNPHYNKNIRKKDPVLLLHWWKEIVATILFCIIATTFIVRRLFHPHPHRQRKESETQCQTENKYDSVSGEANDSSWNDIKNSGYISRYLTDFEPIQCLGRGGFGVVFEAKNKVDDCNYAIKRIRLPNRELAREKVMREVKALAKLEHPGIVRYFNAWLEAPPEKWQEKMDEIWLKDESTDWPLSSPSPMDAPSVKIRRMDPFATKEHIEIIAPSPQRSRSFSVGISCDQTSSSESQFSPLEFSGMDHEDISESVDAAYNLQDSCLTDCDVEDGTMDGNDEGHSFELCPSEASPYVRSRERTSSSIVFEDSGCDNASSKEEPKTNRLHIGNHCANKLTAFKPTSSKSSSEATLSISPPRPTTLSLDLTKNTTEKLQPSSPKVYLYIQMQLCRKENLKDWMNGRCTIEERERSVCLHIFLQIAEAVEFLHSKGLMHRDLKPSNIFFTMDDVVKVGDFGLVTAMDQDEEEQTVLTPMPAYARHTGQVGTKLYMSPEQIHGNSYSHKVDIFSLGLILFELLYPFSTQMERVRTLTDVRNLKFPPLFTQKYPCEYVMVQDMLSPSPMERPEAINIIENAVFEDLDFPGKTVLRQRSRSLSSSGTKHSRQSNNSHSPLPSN
Protocol: (§1) The compounds were diluted to the appropriate concentration. The compounds were added to a “mother plate” consisting of samples, controls, and blanks. These serve as the source for “daughter plates” which are stored at −20 °C until assay initiation. Protein Kinases: Enzyme/Substrate mixture was added to the compound, and the compounds were incubated for five minutes at room temperature (RT). ^33P ATP was added to the compounds to initiate the assay. Orthophosphoric acid was added to the compounds to halt the assay. Assay components were harvested onto P81 filter plates, filter plates were air-dried, scintillation fluid was added to plates, and counts were read on a Topcount NXT. A mean percentage activity was calculated.

SIK3 = SIK3 (Homo sapiens, UniProt Q9Y2K2)
Protocol: as §1

TSSK1 = target: T2, TSSK1 (Homo sapiens, UniProt Q9BXA7); settings: read-out: Remaining protein kinase activity
T2 sequence (Q9BXA7 1-367): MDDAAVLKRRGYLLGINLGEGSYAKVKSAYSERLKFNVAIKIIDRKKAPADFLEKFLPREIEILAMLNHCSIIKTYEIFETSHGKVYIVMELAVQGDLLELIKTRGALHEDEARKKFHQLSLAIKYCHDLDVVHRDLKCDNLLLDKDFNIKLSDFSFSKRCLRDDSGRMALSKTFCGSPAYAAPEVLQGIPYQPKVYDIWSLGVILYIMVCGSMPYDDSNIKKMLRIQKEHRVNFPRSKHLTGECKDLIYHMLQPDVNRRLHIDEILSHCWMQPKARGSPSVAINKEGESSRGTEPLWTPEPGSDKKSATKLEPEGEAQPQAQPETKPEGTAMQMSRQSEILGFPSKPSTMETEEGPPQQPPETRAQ
Protocol: as §1

PKCγ = PKCγ (Homo sapiens, UniProt P05129); settings: read-out: Remaining protein kinase activity
Protocol: as §1

ERK8 = target: T3, ERK8 (Homo sapiens, UniProt Q8TD08); settings: read-out: Remaining protein kinase activity
T3 sequence (Q8TD08 1-544): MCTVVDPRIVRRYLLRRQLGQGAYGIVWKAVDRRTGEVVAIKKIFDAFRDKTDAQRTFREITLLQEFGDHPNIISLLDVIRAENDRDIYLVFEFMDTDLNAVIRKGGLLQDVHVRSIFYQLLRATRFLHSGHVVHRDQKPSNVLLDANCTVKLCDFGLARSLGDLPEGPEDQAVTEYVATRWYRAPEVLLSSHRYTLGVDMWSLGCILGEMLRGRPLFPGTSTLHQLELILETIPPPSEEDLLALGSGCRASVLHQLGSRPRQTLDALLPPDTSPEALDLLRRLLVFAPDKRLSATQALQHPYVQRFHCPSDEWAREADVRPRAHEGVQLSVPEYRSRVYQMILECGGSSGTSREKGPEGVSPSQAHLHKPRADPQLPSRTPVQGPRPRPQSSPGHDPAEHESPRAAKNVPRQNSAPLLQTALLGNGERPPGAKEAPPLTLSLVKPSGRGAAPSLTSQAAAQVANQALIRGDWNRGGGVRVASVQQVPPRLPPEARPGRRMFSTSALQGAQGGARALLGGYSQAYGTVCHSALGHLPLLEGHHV
Protocol: as §1

MNK1 = MNK1 (Homo sapiens, UniProt Q9BUB5); settings: read-out: Remaining protein kinase activity
Protocol: as §1

Sequence of SIK3 (Q9Y2K2 whole entry): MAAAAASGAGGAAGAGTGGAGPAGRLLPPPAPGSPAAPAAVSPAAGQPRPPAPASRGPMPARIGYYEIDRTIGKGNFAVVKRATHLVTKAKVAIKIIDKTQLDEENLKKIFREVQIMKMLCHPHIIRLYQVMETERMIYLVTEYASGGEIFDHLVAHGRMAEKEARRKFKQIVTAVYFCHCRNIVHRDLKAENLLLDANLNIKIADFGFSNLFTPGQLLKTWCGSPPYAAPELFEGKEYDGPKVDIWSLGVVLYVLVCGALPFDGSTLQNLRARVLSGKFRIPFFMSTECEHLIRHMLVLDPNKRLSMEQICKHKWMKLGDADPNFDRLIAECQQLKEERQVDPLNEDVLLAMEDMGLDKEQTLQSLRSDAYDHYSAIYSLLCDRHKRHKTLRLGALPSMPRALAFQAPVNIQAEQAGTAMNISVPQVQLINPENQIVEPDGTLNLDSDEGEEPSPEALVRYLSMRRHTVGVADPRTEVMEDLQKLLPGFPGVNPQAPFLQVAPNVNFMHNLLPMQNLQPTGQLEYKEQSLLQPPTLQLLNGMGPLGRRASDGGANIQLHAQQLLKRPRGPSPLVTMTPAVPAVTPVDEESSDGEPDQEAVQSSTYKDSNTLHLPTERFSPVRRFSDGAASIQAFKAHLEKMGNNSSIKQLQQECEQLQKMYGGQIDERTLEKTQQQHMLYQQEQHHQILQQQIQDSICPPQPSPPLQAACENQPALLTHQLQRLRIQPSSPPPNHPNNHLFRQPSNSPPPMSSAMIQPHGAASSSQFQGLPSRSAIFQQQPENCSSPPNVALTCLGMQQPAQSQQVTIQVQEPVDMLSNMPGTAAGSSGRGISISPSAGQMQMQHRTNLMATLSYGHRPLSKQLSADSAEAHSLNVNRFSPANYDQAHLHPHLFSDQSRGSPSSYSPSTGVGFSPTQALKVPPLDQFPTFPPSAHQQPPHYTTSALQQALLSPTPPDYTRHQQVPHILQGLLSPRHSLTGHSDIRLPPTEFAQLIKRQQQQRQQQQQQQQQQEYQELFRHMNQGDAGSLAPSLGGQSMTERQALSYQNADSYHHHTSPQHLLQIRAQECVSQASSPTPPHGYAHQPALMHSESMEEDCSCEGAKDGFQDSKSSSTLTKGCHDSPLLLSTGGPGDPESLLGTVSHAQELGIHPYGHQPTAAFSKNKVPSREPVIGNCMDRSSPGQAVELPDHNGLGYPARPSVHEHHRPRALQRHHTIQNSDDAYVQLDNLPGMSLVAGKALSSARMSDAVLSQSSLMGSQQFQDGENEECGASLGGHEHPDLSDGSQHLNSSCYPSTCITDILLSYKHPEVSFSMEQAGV
Sequence of MNK1 (Q9BUB5 whole entry): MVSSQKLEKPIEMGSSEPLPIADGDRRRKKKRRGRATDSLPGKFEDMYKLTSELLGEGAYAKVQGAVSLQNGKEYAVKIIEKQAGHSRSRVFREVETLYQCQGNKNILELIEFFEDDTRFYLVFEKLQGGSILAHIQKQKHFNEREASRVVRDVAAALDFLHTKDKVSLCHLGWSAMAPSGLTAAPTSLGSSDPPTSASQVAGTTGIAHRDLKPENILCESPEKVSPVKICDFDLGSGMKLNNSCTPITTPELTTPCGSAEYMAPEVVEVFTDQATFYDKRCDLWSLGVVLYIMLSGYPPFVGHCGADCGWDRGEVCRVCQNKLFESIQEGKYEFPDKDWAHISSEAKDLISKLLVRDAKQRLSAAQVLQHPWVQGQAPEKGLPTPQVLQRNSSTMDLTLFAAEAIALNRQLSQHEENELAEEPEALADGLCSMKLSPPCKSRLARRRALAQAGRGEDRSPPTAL

## COc1ccc2sc(-c3cncc(N)c3)nc2c1 [compound 1, 5-(5-Methoxybenzo[d]thiazol-2-yl)pyridin-3-amine]
EIF2AK3; EIF2AK3, 1 μM
  remaining activity at 1 µM: 122%
EIF2AK3; EIF2AK3, 100 μM
  remaining activity at 100 µM: 84%
SIK3; 1 μM
  Remaining protein kinase activity: 106%
SIK3; 100 μM
  Remaining protein kinase activity: 19%
TSSK1; TSSK1, 1 μM
  remaining activity at 1 µM: 107%
TSSK1; TSSK1, 100 μM
  remaining activity at 100 µM: 70%
PKCγ; PKCγ, 1 μM
  remaining activity at 1 µM: 115%
PKCγ; PKCγ, 100 μM
  remaining activity at 100 µM: 61%
ERK8; ERK8, 1 μM
  remaining activity at 1 µM: 86%
ERK8; ERK8, 100 μM
  remaining activity at 100 µM: 4%
MNK1; MNK1, 1 μM
  remaining activity at 1 µM: 97%
MNK1; MNK1, 100 μM
  remaining activity at 100 µM: 20%

## COc1ccc2sc(-c3cncc(NC(C)=O)c3)nc2c1 [PST-001, N-(5-(5-Methoxybenzo[d]thiazol-2-yl)pyridin-3-yl)acetamide]
EIF2AK3
  remaining activity at 1 µM: 123%
  remaining activity at 100 µM: 118%
SIK3; 1 μM
  Remaining protein kinase activity: 114%
SIK3; 100 μM
  Remaining protein kinase activity: 78%
TSSK1
  remaining activity at 1 µM: 124%
  remaining activity at 100 µM: 114%
PKCγ
  remaining activity at 1 µM: 125%
  remaining activity at 100 µM: 124%
ERK8
  remaining activity at 1 µM: 89%
  remaining activity at 100 µM: 28%
MNK1
  remaining activity at 1 µM: 111%
  remaining activity at 100 µM: 94%
